pIC50: −log10 of the molar value. Read-outs that look alike come from different tables or passages of the source.
Columns and labels:
human recombinant HDAC1 = target: T1, human recombinant HDAC1 (Homo sapiens, UniProt Q13547); test: HDAC1 enzyme activity inhibition (HDAC Fluorimetric Drug Discovery Kit); type: biochemical; details: read-out: HDAC1
T1 construct: purchased Enzo Life Science, Inc. BML-SE456
How it was run: (§1)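 Fluorimetric deacetylase read-out. 5-fold compound dilutions; […] enzyme, 10 μM substrate; 30° C, 60 min; developer 30 min.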

human recombinant HDAC6 = target: T2, human recombinant HDAC6 (Homo sapiens, UniProt Q9UBN7); test: HDAC6 enzyme activity inhibition (HDAC Fluorimetric Drug Discovery Kit); type: biochemical
T2 construct: purchased Calbiochem Inc. 382180
T2 sequence (Q9UBN7 1-1215): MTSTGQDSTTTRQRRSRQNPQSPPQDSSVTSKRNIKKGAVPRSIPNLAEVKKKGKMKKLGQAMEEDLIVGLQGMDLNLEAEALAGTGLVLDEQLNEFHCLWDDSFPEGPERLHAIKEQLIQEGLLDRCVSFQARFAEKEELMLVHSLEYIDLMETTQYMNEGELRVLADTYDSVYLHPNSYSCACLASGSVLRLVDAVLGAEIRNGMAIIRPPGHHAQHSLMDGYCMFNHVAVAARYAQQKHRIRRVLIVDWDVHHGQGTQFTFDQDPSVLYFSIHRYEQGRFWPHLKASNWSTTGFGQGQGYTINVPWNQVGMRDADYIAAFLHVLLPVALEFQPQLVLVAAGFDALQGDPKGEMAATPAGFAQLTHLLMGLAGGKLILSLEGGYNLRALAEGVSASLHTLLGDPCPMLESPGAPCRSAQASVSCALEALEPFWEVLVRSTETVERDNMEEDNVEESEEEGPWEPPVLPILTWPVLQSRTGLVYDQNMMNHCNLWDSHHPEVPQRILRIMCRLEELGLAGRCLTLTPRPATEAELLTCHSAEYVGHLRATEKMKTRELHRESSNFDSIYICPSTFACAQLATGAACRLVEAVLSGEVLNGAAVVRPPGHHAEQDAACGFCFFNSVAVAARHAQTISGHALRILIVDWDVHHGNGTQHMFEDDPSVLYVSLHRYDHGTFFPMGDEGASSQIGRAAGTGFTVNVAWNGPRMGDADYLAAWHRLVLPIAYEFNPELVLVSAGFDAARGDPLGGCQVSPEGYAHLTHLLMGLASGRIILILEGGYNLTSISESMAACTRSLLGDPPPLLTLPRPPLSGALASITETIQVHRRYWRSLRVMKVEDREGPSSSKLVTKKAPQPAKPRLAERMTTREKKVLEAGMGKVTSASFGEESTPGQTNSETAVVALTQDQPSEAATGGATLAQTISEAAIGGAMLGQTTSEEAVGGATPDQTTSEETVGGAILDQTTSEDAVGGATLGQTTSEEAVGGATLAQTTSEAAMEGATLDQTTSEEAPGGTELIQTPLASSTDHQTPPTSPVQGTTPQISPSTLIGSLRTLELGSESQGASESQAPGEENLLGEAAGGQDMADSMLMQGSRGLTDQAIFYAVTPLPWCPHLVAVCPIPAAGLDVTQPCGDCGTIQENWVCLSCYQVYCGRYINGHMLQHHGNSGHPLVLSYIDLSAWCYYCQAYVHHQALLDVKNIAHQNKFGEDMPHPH
How it was run: as §1

[1] = human recombinant HDAC1, IC50 calculated with GraphPad Prism
[2] = human recombinant HDAC6, IC50 calculated with GraphPad Prism
[3] = human recombinant HDAC1, Fluor de Lys substrate, 30° C. 60 minutes
[4] = human recombinant HDAC6, same protocol as HDAC1

T1 sequence (Q13547 whole entry): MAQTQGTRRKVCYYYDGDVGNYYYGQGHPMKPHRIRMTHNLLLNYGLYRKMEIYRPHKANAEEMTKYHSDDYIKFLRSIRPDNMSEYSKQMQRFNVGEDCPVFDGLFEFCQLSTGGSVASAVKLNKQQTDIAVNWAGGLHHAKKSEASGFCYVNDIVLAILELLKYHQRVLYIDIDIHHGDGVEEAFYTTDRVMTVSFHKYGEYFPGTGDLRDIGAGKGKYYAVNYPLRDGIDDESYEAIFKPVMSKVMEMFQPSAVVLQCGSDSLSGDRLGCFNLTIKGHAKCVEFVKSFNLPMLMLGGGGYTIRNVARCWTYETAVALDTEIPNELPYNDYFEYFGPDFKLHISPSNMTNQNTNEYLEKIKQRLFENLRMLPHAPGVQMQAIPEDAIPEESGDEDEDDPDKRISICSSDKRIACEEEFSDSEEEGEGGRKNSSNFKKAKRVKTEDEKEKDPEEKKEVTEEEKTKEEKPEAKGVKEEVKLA

Row | Compound | pIC50 (human recombinant HDAC1; [1]) | HDAC6 selectivity (fold) (human recombinant HDAC6; HDAC1 IC50 / HDAC6 IC50) | pIC50 (human recombinant HDAC6; [2]) | pIC50 (human recombinant HDAC1; [3]) | HDAC6 selectivity (fold) (human recombinant HDAC6; HDAC6 over HDAC1) | pIC50 (human recombinant HDAC6; [4])
1 | CCC(F)(CC)CN1CCC(c2cccc(-c3cn(Cc4ccc(-c5nnc(C(F)F)o5)cc4F)nn3)c2)CC1 [Compound 4350, 2-(difluoromethyl)-5-(4-((4-(3-(1-(2-ethyl-2-fluorobutyl)piperidin-4-yl)phenyl)-1H-1,2,3-triazol-1-yl)methyl)-3-fluorophenyl)-1,3,4-oxadiazole] | < 4.30 | 82 | 6.22 |  |  | 
2 | CC(=O)N1CCC(Cc2cn(Cc3ccc(-c4nnc(C(F)F)o4)cn3)nn2)CC1 [Compound 4015, 1-(4-((1-((5-(5-(difluoromethyl)-1,3,4-oxadiazol-2-yl)pyridin-2-yl)methyl)-1H-1,2,3-triazol-4-yl)methyl)piperidin-1-yl)ethan-1-one] | < 4.30 | 106 | 6.33 |  |  | 
3 | COc1cccc(-c2cn(Cc3ccc(-c4nnc(C(F)F)o4)cc3F)nn2)n1 [Compound 18736, 2-(difluoromethyl)-5-(3-fluoro-4-((4-(6-methoxypyridin-2-yl)-1H-1,2,3-triazol-1-yl)methyl)phenyl)-1,3,4-oxadiazole] |  |  |  | < 4.30 | 622 | 7.10
4 | CN(C)C1CCN(Cc2ccc(-c3cn(Cc4ccc(-c5nnc(C(F)F)o5)cn4)nn3)cc2)CC1 [Compound 4564, 1-(4-(1-((5-(5-(difluoromethyl)-1,3,4-oxadiazol-2-yl)pyridin-2-yl)methyl)-1H-1,2,3-triazol-4-yl)benzyl)-N,N-dimethylpiperidin-4-amine] |  |  |  | < 4.30 | 2358 | 7.67
5 | CCN1[C@H](C)CN(c2cccc(-c3cn(Cc4ccc(-c5nnc(C(F)F)o5)cc4)nn3)c2)C[C@@H]1C [Compound 4442] | < 4.30 | 1256 | 7.40 |  |  | 
6 | Fc1cc(-c2nnc(C(F)F)o2)ccc1Cn1cc(-c2ccc(F)c(N3CCN(C4CCC4)CC3)c2)nn1 [Compound 4426, 2-(4-((4-(3-(4-cyclobutylpiperazin-1-yl)-4-fluorophenyl)-1H-1,2,3-triazol-1-yl)methyl)-3-fluorophenyl)-5-(difluoromethyl)-1,3,4-oxadiazole] | < 4.30 | 334 | 6.82 |  |  | 
7 | FC(F)c1nnc(-c2ccc(Cn3cnc(Br)c3)nc2)o1 [Compound 3949, 2-(6-((4-bromo-1H-imidazol-1-yl)methyl)pyridin-3-yl)-5-(difluoromethyl)-1,3,4-oxadiazole] | < 4.30 | 445 | 6.95 |  |  | 
8 | CN1CCN(c2cccc(-c3cn(Cc4ccc(-c5nnc(C(F)F)o5)cn4)nn3)c2F)CC1 [Compound 4569, 2-(difluoromethyl)-5-(6-((4-(2-fluoro-3-(4-methylpiperazin-1-yl)phenyl)-1H-1,2,3-triazol-1-yl)methyl)pyridin-3-yl)-1,3,4-oxadiazole] |  |  |  | < 4.30 | 3649 | 7.86
9 | Fc1cc(-c2nnc(C(F)F)o2)ccc1Cn1cc(-c2cccc(N3CCN(C4CCC4)CC3)n2)nn1 [Compound 17364, 2-(4-((4-(6-(4-cyclobutylpiperazin-1-yl)pyridin-2-yl)-1H-1,2,3-triazol-1-yl)methyl)-3-fluorophenyl)-5-(difluoromethyl)-1,3,4-oxadiazole] |  |  |  | < 4.30 | 976 | 7.29
10 | FC(F)c1nnc(-c2ccc(Cn3cc(-c4ccc(Br)nc4)nn3)nc2)o1 [Compound 4183, 2-(6-((4-(6-bromopyridin-3-yl)-1H-1,2,3-triazol-1-yl)methyl)pyridin-3-yl)-5-(difluoromethyl)-1,3,4-oxadiazole] | < 4.30 | 896 | 7.25 |  |  | 

The next lines start with the values.

Row | pIC50 (human recombinant HDAC1; [1]) | HDAC6 selectivity (fold) (human recombinant HDAC6; HDAC1 IC50 / HDAC6 IC50) | pIC50 (human recombinant HDAC6; [2]) | pIC50 (human recombinant HDAC1; [3]) | HDAC6 selectivity (fold) (human recombinant HDAC6; HDAC6 over HDAC1) | pIC50 (human recombinant HDAC6; [4]) | Compound
11 | < 4.30 | 2173 | 7.64 |  |  |  | CN(C)CC(=O)Nc1cccc(-c2cn(Cc3ccc(-c4nnc(C(F)F)o4)cn3)nn2)c1 [Compound 4230, N-(3-(1-((5-(5-(difluoromethyl)-1,3,4-oxadiazol-2-yl)pyridin-2-yl)methyl)-1H-1,2,3-triazol-4-yl)phenyl)-2-(dimethylamino)acetamide]
12 | < 4.30 | 212 | 6.63 |  |  |  | OC1(c2cn(Cc3ccc(-c4nnc(C(F)F)o4)cn3)nn2)CCOC1 (stereo not drawn) [Compound 4277, 3-(1-((5-(5-(difluoromethyl)-1,3,4-oxadiazol-2-yl)pyridin-2-yl)methyl)-1H-1,2,3-triazol-4-yl)tetrahydrofuran-3-ol]
13 | < 4.30 | 446 | 6.95 |  |  |  | CS(=O)(=O)N1CCC(c2cn(Cc3ccc(-c4nnc(C(F)F)o4)cn3)nn2)CC1 [Compound 3812]
14 |  |  |  | < 4.30 | 1592 | 7.50 | Fc1cc(-c2nnc(C(F)F)o2)cnc1Cn1cc(-c2cccc3[nH]ccc23)nn1 [Compound 18921, 2-(6-((4-(1H-indol-4-yl)-1H-1,2,3-triazol-1-yl)methyl)-5-fluoropyridin-3-yl)-5-(difluoromethyl)-1,3,4-oxadiazole]
15 |  |  |  | < 4.30 | 172 | 6.54 | Fc1cc(-c2nnc(C(F)F)o2)ccc1Cn1cc(-c2ccccc2CNC2CCC2)nn1 [Compound 4589, N-(2-(1-(4-(5-(difluoromethyl)-1,3,4-oxadiazol-2-yl)-2-fluorobenzyl)-1H-1,2,3-triazol-4-yl)benzyl)cyclobutanamine]
16 |  |  |  | < 4.30 | 131 | 6.42 | Fc1cc(-c2nnc(C(F)F)o2)cnc1Cn1cc(-c2ccccc2CN2CCCC2)nn1 [Compound 18823]
17 | < 4.30 | 241 | 6.68 |  |  |  | CC(=O)N1CCC(c2cn(Cc3ccc(-c4nnc(C(F)F)o4)cn3)nn2)CC1 [Compound 3811, 1-(4-(1-((5-(5-(difluoromethyl)-1,3,4-oxadiazol-2-yl)pyridin-2-yl)methyl)-1H-1,2,3-triazol-4-yl)piperidin-1-yl)ethan-1-one]
18 | < 4.30 | 1291 | 7.41 |  |  |  | Fc1cnccc1-c1cn(Cc2ccc(-c3nnc(C(F)F)o3)cn2)nn1 [Compound 4184, 2-(difluoromethyl)-5-(6-((4-(3-fluoropyridin-4-yl)-1H-1,2,3-triazol-1-yl)methyl)pyridin-3-yl)-1,3,4-oxadiazole]
19 | < 4.30 | 1915 | 7.58 |  |  |  | FC(F)c1nnc(-c2ccc(Cn3cc(-c4ccc(-n5ccnc5)cc4)nn3)nc2)o1 [Compound 4284, 2-(6-((4-(4-(1H-imidazol-1-yl)phenyl)-1H-1,2,3-triazol-1-yl)methyl)pyridin-3-yl)-5-(difluoromethyl)-1,3,4-oxadiazole]
20 | < 4.30 | 500 | 6.61 |  |  |  | CC(C)(C)OC(=O)N1CCC(c2cn(Cc3ccc(-c4nnc(C(F)F)o4)cc3F)nn2)C1 (stereo not drawn) [Compound 3734, Tert-butyl 3-(1-(4-(5-(difluoromethyl)-1,3,4-oxadiazol-2-yl)-2-fluorobenzyl)-1H-1,2,3-triazol-4-yl)pyrrolidin-1-carboxylate]
21 | < 4.30 | 1754 | 7.55 |  |  |  | CC(C)(C)OC(=O)Nc1cccc(-c2cn(Cc3ccc(-c4nnc(C(F)F)o4)cn3)nn2)c1 [Compound 3741, Tert-butyl (3-(1-((5-(5-(difluoromethyl)-1,3,4-oxadiazol-2-yl)pyridin-2-yl)methyl)-1H-1,2,3-triazol-4-yl)phenyl)carbamate]
22 | < 4.30 | 909 | 7.26 |  |  |  | CN1CCC(c2cccc(-c3cn(Cc4ccc(-c5nnc(C(F)F)o5)cc4F)nn3)c2)CC1 [Compound 4290, 2-(difluoromethyl)-5-(3-fluoro-4-((4-(3-(1-methylpiperidin-4-yl)phenyl)-1H-1,2,3-triazol-1-yl)methyl)phenyl)-1,3,4-oxadiazole]
